ChEMBL document CHEMBL1201862, “PubChem BioAssay data set” (2004)
The source made the active and inactive calls.

What was measured:
[1] = system: Vero; experiment: viability of Vero cells under compound – cytotoxicity control for flavivirus capping enzyme inhibitors (AID 588742); type: functional; conditions: Chlorocebus sabaeus
[2] = target: Large T antigen (Simian virus 40, UniProt P03070); type: functional, Betapolyomavirus macacae;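 note: Confirmatory-stage PubChem screen for compounds that inhibit SV40 T antigen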
Large T antigen, sequence (P03070 whole entry): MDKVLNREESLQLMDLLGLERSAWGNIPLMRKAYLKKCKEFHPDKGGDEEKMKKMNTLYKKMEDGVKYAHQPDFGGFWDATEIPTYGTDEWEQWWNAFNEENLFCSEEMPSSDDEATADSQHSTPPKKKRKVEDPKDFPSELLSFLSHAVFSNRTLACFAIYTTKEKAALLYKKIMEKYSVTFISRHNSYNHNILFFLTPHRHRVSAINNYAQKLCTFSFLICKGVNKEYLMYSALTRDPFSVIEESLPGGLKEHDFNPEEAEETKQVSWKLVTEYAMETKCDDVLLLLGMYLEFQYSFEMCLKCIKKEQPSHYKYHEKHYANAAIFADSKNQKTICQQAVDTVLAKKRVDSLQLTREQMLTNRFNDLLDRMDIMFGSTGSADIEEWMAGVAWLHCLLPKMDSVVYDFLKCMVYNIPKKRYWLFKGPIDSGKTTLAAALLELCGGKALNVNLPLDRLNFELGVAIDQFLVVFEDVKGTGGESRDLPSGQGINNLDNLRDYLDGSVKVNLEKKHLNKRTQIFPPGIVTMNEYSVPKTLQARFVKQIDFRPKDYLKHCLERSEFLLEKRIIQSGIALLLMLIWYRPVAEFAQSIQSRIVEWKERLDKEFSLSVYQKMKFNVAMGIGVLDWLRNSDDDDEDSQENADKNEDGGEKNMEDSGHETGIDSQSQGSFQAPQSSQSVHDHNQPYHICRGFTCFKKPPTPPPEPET

[3] = target: Beta-galactosidase (Escherichia coli, UniProt Q8VNN2); experiment: detection-enzyme interference by beta-gal modulators – biochemical, E. coli enzyme, set 3, artefact control for CCR6 antagonist project, dose response (AID 504712); type: functional
[4] = target: Peroxisome proliferator-activated receptor gamma/Nuclear receptor coactivator 2 (Homo sapiens, UniProt P37231); experiment: (§1) TR-FRET dose response biochemical High Throughput Screening assay for agonists of the steroid receptor coactivator 2 (SRC-2) recruitment by the peroxisome proliferator-activated receptor gamma (PPAR gamma): non-selective agonists. [Related pubchem assays: 1297, 1032 ]; type: functional
[5] = target: Peroxisome proliferator-activated receptor gamma/Nuclear receptor coactivator 1 (Homo sapiens, UniProt P37231); experiment: as §1, with “1 (SRC-1)” for “2 (SRC-2)”, “assays (depositor defined):AID1300, AID1808, AID504735, AID631]” for “assays: 1297, 1032 ]”; type: protein assay
Peroxisome proliferator-activated receptor gamma/Nuclear receptor coactivator 1, sequence (P37231 whole entry): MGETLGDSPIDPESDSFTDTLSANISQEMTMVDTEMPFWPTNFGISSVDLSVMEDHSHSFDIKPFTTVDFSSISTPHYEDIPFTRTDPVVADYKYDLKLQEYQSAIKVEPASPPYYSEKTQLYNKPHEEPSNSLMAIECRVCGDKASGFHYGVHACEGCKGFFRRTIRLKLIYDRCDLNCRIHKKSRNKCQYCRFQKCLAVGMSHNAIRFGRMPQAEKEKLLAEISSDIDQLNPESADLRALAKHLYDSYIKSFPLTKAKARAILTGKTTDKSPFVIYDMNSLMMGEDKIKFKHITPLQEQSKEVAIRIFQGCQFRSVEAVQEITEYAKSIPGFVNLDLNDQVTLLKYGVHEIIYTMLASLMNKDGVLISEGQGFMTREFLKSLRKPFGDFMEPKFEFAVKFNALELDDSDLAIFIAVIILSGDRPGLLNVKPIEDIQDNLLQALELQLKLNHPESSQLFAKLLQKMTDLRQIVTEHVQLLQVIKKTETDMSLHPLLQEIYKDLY
Peroxisome proliferator-activated receptor gamma/Nuclear receptor coactivator 1, sequence (Q15788 whole entry, further chain): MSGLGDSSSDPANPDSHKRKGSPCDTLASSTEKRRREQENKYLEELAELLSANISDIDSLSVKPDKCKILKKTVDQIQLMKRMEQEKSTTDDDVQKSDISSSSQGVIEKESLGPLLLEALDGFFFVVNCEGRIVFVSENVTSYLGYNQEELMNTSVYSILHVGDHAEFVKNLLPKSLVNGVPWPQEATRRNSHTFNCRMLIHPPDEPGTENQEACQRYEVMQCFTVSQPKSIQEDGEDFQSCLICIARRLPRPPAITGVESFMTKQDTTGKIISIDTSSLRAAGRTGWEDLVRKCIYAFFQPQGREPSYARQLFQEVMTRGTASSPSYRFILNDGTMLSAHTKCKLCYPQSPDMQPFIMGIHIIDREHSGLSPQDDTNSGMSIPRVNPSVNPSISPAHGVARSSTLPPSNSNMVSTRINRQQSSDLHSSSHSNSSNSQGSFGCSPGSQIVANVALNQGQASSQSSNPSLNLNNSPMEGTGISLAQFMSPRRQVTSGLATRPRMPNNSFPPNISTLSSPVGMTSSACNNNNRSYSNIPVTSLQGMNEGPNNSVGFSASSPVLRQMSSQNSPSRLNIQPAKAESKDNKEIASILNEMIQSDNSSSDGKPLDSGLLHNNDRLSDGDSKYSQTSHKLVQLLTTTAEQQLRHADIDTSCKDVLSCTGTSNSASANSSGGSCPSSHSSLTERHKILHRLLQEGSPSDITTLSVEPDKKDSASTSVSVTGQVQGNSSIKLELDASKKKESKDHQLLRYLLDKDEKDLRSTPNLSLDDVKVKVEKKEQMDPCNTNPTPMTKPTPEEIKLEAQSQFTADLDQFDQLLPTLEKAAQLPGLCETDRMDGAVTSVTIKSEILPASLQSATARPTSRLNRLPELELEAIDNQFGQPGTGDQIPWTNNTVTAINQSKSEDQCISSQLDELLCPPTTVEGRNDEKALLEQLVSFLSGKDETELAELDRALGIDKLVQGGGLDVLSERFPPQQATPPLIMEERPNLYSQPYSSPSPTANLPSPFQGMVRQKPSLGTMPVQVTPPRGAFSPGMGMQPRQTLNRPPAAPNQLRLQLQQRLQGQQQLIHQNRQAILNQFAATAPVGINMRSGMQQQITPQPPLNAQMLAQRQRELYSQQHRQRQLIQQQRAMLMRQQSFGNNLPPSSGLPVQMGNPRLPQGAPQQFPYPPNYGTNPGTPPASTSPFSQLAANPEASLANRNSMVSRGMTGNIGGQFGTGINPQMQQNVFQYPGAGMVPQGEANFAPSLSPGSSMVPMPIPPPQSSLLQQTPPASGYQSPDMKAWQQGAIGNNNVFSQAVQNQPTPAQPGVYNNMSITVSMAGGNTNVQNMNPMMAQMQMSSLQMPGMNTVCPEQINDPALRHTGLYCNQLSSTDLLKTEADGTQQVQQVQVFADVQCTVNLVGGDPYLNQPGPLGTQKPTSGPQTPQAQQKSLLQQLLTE

[6] = target: Peroxisome proliferator-activated receptor gamma/Nuclear receptor coactivator 3 (Homo sapiens, UniProt P37231); experiment: as §1, with “3 (SRC-3)” for “2 (SRC-2)”, “1301 (Confirmation screen.), 1048 (Primary screen.)]” for “1297, 1032 ]”; type: functional
Peroxisome proliferator-activated receptor gamma/Nuclear receptor coactivator 3, sequence (P37231 whole entry): as the sequence (P37231 whole entry) above
Peroxisome proliferator-activated receptor gamma/Nuclear receptor coactivator 3, sequence (Q9Y6Q9 whole entry, further chain): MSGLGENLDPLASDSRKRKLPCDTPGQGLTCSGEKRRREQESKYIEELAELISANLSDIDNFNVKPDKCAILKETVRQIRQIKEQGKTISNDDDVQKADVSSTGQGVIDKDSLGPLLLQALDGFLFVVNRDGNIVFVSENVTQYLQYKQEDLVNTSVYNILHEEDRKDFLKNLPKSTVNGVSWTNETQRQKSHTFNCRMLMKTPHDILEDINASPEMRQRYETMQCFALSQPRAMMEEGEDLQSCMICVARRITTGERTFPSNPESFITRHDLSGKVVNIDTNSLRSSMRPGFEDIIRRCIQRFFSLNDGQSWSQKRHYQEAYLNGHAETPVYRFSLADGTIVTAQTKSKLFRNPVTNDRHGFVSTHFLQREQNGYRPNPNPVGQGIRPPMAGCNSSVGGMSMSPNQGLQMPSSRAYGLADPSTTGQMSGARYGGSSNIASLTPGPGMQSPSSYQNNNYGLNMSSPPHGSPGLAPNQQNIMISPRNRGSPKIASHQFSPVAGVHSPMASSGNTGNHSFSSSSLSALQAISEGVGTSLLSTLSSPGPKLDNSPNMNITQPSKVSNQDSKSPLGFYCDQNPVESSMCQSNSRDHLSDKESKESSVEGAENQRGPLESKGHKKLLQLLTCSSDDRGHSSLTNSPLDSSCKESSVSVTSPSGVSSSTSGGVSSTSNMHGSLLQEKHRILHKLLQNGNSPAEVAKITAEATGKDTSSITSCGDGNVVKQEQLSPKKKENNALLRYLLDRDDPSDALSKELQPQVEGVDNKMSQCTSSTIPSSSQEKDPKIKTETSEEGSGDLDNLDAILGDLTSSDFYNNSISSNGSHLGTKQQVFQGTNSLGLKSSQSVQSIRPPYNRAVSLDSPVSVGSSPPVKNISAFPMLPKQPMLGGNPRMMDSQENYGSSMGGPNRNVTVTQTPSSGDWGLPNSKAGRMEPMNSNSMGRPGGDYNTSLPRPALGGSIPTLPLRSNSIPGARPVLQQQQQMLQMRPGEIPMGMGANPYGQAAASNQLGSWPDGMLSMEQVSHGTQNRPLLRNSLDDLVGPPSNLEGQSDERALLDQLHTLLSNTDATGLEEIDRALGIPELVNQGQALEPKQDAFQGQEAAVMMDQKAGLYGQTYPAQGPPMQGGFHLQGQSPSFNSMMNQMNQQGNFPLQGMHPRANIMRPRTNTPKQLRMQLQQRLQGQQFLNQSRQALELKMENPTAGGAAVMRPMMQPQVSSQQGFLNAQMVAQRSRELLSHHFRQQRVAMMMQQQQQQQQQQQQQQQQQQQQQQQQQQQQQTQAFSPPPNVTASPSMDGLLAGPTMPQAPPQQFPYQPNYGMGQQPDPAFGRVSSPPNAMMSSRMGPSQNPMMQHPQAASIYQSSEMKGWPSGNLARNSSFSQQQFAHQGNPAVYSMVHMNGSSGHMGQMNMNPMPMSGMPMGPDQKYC

[7] = target: T1, Microphthalmia-associated transcription factor (Homo sapiens, UniProt O75030); experiment: reducers of TRPM1 reporter luminescence, concentration series – cell-based, SK-MEL-5, cherry-picked, set 3, MITF inhibitor project, dose response (AID 493073); type: functional;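 note: SK-MEL-5 melanoma cells with luciferase driven by the MITF target TRPM1 promoter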
T1 sequence (O75030 whole entry): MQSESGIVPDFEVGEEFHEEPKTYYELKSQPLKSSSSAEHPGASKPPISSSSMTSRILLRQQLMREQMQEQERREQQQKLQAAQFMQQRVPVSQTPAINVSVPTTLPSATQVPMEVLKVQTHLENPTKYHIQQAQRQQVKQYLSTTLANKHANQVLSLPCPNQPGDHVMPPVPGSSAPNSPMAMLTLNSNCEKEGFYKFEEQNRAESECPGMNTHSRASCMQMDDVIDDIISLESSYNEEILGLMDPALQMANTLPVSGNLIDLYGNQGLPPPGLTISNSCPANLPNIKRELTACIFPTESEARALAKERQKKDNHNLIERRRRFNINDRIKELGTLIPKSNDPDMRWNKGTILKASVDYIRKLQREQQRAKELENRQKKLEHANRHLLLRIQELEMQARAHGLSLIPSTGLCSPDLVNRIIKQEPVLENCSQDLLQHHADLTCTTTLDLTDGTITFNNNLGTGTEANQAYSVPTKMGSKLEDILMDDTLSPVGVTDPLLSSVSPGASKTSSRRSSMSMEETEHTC

[8] = target: Phospholipase A2 (Homo sapiens, UniProt P04054); type: functional;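 note: confirmatory dose-response counterscreen on phospholipase A2, testing hits that came from an ultra-high-throughput screen for ATG4B inhibitors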
Phospholipase A2, sequence (P04054 whole entry): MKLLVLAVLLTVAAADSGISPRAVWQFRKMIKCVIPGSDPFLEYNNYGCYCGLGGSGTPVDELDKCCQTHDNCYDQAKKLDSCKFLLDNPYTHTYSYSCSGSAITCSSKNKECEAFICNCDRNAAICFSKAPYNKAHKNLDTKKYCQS

[9] = target: T2, Cysteine protease ATG4B (Homo sapiens, UniProt Q9Y4P1); type: functional;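 note: Fluorescence-based dose-response confirmation assay measuring inhibition of ATG4B activity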
T2 sequence (Q9Y4P1 whole entry): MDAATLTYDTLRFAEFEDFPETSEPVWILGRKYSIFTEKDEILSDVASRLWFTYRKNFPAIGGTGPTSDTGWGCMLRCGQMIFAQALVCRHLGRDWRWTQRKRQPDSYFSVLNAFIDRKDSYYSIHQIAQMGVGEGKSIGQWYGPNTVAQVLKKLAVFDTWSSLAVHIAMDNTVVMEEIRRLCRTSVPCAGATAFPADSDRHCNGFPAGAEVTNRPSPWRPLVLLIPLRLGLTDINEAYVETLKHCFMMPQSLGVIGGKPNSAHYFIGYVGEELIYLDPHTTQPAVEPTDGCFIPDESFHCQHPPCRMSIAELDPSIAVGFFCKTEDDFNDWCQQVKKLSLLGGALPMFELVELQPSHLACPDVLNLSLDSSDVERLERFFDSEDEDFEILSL

[10] = target: T3, DNA repair protein RAD52 homolog (Homo sapiens, UniProt P43351); type: functional, biochemical
T3 sequence (P43351 whole entry): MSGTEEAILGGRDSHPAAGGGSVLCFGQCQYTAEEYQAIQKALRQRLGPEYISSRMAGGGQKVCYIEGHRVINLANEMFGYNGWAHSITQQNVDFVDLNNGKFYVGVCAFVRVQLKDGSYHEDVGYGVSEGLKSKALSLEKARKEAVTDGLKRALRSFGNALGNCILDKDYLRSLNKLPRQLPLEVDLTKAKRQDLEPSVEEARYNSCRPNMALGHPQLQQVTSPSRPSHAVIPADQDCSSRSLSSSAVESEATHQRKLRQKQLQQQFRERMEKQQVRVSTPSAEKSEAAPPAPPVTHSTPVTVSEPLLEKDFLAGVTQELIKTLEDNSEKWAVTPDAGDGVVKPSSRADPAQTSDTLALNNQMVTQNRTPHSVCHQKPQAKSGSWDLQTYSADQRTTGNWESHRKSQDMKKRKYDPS

[11] = target: T4, Ubiquitin-conjugating enzyme E2 N (Homo sapiens, UniProt P61088); type: functional;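 note: Dose-response confirmation in a TR-FRET assay detecting UBC13-driven polyubiquitin chain formation, inhibition measured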
T4 sequence (P61088 whole entry): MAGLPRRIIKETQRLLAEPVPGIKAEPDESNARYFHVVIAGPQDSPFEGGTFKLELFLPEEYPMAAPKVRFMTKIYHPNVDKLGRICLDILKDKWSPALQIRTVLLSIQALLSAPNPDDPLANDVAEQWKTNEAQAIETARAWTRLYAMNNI

[12] = target: T5, Replicative DNA helicase DnaB (Mycobacterium tuberculosis, UniProt P9WMR3); experiment: DnaB intein splicing inhibitors, dose response, biochemical, cell-free fluorescence (AID 449749); type: functional
T5 sequence (P9WMR3 whole entry): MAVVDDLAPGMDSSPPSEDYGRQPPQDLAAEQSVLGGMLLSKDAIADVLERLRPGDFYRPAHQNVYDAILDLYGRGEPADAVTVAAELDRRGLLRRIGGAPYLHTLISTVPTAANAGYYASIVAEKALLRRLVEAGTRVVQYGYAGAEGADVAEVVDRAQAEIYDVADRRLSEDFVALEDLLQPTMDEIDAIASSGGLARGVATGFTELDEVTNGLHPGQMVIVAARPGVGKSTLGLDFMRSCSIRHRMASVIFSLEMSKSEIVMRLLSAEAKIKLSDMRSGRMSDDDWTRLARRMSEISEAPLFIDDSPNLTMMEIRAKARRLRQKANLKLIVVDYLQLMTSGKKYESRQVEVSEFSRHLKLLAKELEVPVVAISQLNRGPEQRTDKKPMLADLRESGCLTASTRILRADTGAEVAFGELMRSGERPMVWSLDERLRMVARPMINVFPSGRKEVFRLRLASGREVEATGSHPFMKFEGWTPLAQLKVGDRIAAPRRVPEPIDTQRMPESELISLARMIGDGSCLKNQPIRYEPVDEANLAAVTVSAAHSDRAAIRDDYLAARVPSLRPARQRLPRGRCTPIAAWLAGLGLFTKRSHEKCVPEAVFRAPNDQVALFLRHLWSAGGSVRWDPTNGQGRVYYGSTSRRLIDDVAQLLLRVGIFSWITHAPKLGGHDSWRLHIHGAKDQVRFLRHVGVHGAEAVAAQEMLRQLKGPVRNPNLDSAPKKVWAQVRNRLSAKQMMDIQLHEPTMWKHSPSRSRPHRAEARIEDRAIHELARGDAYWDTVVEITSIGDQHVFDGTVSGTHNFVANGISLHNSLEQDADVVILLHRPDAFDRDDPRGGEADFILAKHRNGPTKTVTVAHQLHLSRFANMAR

[13] = target: T6, Zinc finger protein mex-5 (Caenorhabditis elegans, UniProt Q9XUB2); experiment: potency of MEX-5 RNA-binding blockers – biochemical, C. elegans, fluorescence polarization, dose response (AID 1960)
T6 sequence (Q9XUB2 whole entry): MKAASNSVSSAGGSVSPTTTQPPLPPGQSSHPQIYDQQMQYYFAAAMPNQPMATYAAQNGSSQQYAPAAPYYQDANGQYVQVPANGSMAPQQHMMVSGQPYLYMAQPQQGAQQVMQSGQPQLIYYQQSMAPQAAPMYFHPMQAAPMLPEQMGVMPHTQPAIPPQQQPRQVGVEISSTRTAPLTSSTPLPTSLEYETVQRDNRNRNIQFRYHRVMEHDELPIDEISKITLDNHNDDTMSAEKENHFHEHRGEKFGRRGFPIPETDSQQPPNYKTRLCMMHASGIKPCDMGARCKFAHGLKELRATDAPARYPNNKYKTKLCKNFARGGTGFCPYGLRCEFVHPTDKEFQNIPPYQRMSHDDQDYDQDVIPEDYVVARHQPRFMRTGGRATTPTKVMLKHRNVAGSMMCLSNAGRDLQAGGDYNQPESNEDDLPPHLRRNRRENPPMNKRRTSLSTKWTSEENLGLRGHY

[14] = target: T7, RNA-binding protein pos-1 (Caenorhabditis elegans, UniProt G5EF15); experiment: disruptors of C. elegans POS-1 RNA interaction – biochemical, fluorescence polarization, dose response (AID 1964);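 note: purified POS-1 fused to maltose binding protein made in E. coli; potency of compounds blocking POS-1 binding to fluorescent RNA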
T7 sequence (G5EF15 whole entry): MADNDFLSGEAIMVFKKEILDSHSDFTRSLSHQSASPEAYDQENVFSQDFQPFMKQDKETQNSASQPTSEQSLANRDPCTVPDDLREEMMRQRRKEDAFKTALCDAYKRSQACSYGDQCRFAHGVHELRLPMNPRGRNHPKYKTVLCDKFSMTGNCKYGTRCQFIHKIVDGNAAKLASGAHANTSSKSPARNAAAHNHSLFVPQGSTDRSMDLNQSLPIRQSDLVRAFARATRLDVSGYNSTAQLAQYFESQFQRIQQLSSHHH

[15] = target: T8, Protein RecA (Mycobacterium tuberculosis, UniProt P9WHJ3); experiment: Fluorescence Cell-Free Homogeneous Dose Retest to Identify Inhibitors of RecA-Intein Splicing Activity. [Related pubchem assays (depositor defined):AID2097, AID2223, AID489010, AID492950]; type: functional
T8 sequence (P9WHJ3 whole entry): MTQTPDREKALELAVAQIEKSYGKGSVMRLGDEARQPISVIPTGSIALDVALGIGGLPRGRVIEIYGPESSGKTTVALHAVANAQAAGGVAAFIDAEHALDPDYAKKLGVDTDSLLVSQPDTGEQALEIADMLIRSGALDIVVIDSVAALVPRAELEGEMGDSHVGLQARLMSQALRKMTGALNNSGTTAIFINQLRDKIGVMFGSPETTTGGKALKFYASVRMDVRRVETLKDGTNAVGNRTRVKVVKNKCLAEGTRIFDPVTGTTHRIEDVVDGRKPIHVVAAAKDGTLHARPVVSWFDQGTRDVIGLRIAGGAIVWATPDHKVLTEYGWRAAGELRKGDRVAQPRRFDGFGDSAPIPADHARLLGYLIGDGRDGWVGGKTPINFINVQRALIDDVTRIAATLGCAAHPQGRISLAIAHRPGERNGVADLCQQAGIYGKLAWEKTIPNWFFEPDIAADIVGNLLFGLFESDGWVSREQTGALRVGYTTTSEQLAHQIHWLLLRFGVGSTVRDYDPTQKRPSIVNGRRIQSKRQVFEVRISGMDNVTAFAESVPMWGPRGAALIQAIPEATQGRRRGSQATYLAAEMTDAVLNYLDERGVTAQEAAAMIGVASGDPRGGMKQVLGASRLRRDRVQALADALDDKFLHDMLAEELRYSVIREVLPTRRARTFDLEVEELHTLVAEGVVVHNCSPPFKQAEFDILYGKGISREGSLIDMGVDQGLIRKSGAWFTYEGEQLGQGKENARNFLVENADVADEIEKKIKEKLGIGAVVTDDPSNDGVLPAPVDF

How did the CC50 [1] turn out when `CCOc1c(Br)cc(CNc2ccc(N3CCOCC3)cc2)cc1OC` was run?
The CC50 was > 40 µM (active).

What about the IC50 [2] of the same molecule?
Its IC50 is 8.16 µM (active).

For `CCN(CC)CCNC(=S)NC(=O)c1cn(-c2ccccc2)nc1-c1ccc(OC)cc1`, which IC50 [3] is on record?
Its IC50 is > 66.6 µM (inactive).

And the CC50 [1]?
Its CC50 is > 40 µM (active).

What does the source list for `Cc1ccc(S(=O)(=O)NCC(=O)OCC(=O)c2ccc(Br)s2)cc1`?
EC50 [4]: 8.2 µM (active); EC50 [5]: 60 µM (inactive); EC50 [6]: > 79.4 µM (not active)

How did the EC50 [4] turn out when `COc1cccc(C2C=C(c3ccc(Br)s3)Nc3ncnn32)c1OC` (centres undefined) was run?
Its EC50 is 9.72 µM (active).

What about the EC50 [5] of the same molecule?
Its EC50 is 8.66 µM (active).

What about the EC50 [6] of the same molecule?
Its EC50 is > 26.5 µM (not active).

How did the EC50 [4] turn out when `CN=C(S)N1N=C(c2ccccc2)CC1c1ccc(Br)cc1` (centres undefined) was run?
The EC50 was 27.5 µM (not active).

And the EC50 [5]?
The EC50 was 27.8 µM (inactive).

And the EC50 [6]?
Its EC50 is > 79.4 µM (not active).

For `Cc1ccc(-c2cn3nc(C)c(C)nc3n2)cc1`, which AC50 [7] is on record?
Its AC50 is 5.3 µM (active).

Which IC50 [8] does the source give for `CC(=C\c1ccccc1)/C=C1/SC(=S)N(CCCC(=O)O)C1=O` here?
Its IC50 is 34.7 µM (inactive).

What about the IC50 [9] of the same molecule?
Its IC50 is 17.1 µM (active).

Which results are given for `COc1cccc(/C=C2/Sc3ccc(C(=O)NCCN4CCCC4)cc3NC2=O)c1`?
AC50 [7]: 17.9 µM (active); AC50 [10]: 4.28 µM (active); IC50 [11]: > 20 µM (inactive)

How did the AC50 [7] turn out when `COC(=O)c1ccc(-n2c(C)cc(C(=O)CCl)c2C)cc1` was run?
Its AC50 is 7.46 µM (active).

And the AC50 [12]?
The AC50 was 5.18 µM (active).

What about the EC50 [13] of the same molecule?
Its EC50 is > 300 µM (not active).

What about the EC50 [14] of the same molecule?
The EC50 was > 300 µM (not active).

What about the EC50 [15] of the same molecule?
Its EC50 is 22.7 µM (active).
